Test results reported in PubChem BioAssay (NCI).
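All cell lines were grown in 96-well plates and treated with compound for 48 hours. TGI denotes the concentration required for complete inhibition of growth.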

How the values were obtained:
Experiment in all cases: DTP human tumour cell line panel, 48 h
[1] = system: 786-0 renal
[2] = system: A498 renal
[3] = system: A549 NSCLC
[4] = system: ACHN renal
[5] = system: BT-549 breast
[6] = system: CAKI-1 renal
[7] = system: CCRF-CEM leukemia
[8] = system: COLO 205 colon
[9] = system: DU-145 prostate
[10] = system: EKVX NSCLC
[11] = system: HCC-2998 colon
[12] = system: HCT-116 colon
[13] = system: HCT-15 colon
[14] = system: HL-60(TB) leukemia
[15] = system: HOP-62 NSCLC
[16] = system: HS 578T breast
[17] = system: HT29 colon
[18] = system: IGROV1 ovarian
[19] = system: K-562 leukemia
[20] = system: KM12 colon
[21] = system: LOX IMVI melanoma
[22] = system: M14 melanoma
[23] = system: MALME-3M melanoma
[24] = system: MCF7 breast
[25] = system: MDA-MB-231 breast
[26] = system: MDA-MB-435
[27] = system: MDA-N
[28] = system: MOLT-4 leukemia
[29] = system: NCI-H226 lung
[30] = system: NCI-H23 lung
[31] = system: NCI-H460 lung
[32] = system: NCI-H522 lung
[33] = system: NCI/ADR-RES ovarian
[34] = system: OVCAR-3 ovarian
[35] = system: OVCAR-4 ovarian
[36] = system: OVCAR-5 ovarian
[37] = system: OVCAR-8 ovarian
[38] = system: PC-3 prostate
[39] = system: RPMI-8226 leukemia
[40] = system: RXF 393 renal
[41] = system: SF-268 CNS
[42] = system: SF-295 CNS
[43] = system: SF-539 CNS
[44] = system: SK-MEL-2 melanoma
[45] = system: SK-MEL-28 melanoma
[46] = system: SK-OV-3 ovarian
[47] = system: SN12C renal
[48] = system: SNB-19 CNS
[49] = system: SNB-75 CNS
[50] = system: SW-620 colon
[51] = system: T-47D breast
[52] = system: TK-10 renal
[53] = system: U251 CNS
[54] = system: UACC-257 melanoma
[55] = system: UACC-62 melanoma
[56] = system: HOP-92 NSCLC
[57] = system: SK-MEL-5 melanoma
[58] = system: SR leukemia
[59] = system: UO-31 renal

`CCO/C(O)=C(/C(=N)N1CCOCC1)C(=O)Nc1cccc(Cl)c1` was tested. Which TGI [1] did it give?
Its TGI is over 100 µM.

And the TGI [2]?
Its TGI is over 100 µM.

What about the TGI [3] of the same molecule?
The TGI was over 100 µM.

What about the TGI [4] of the same molecule?
Its TGI is over 100 µM.

What about the TGI [5] of the same molecule?
The TGI was over 100 µM.

What about the TGI [6] of the same molecule?
Its TGI is over 100 µM.

And the TGI [7]?
Its TGI is over 100 µM.

What about the TGI [8] of the same molecule?
Its TGI is over 100 µM.

What about the TGI [9] of the same molecule?
Its TGI is over 100 µM.

What about the TGI [10] of the same molecule?
The TGI was over 100 µM.

And the TGI [11]?
The TGI was over 100 µM.

And the TGI [12]?
The TGI was over 100 µM.

What about the TGI [13] of the same molecule?
The TGI was over 100 µM.

What about the TGI [14] of the same molecule?
Its TGI is over 100 µM.

And the TGI [15]?
Its TGI is over 100 µM.

And the TGI [16]?
The TGI was over 100 µM.

What about the TGI [17] of the same molecule?
The TGI was over 100 µM.

What about the TGI [18] of the same molecule?
The TGI was over 100 µM.

And the TGI [19]?
The TGI was over 100 µM.

And the TGI [20]?
Its TGI is over 100 µM.

And the TGI [21]?
The TGI was over 100 µM.

What about the TGI [22] of the same molecule?
The TGI was over 100 µM.

And the TGI [23]?
Its TGI is over 100 µM.

What about the TGI [24] of the same molecule?
Its TGI is over 100 µM.

And the TGI [25]?
The TGI was over 100 µM.

What about the TGI [26] of the same molecule?
The TGI was over 100 µM.

And the TGI [27]?
The TGI was over 100 µM.

And the TGI [28]?
Its TGI is over 100 µM.

And the TGI [29]?
Its TGI is over 100 µM.

What about the TGI [30] of the same molecule?
Its TGI is over 100 µM.

And the TGI [31]?
The TGI was over 100 µM.

And the TGI [32]?
Its TGI is over 100 µM.

And the TGI [33]?
Its TGI is over 100 µM.

And the TGI [34]?
The TGI was over 100 µM.

And the TGI [35]?
The TGI was over 100 µM.

What about the TGI [36] of the same molecule?
The TGI was over 100 µM.

And the TGI [37]?
The TGI was over 100 µM.

What about the TGI [38] of the same molecule?
Its TGI is over 100 µM.

And the TGI [39]?
The TGI was over 100 µM.

What about the TGI [40] of the same molecule?
The TGI was over 100 µM.

And the TGI [41]?
The TGI was over 100 µM.

And the TGI [42]?
The TGI was over 100 µM.

What about the TGI [43] of the same molecule?
The TGI was over 100 µM.

What about the TGI [44] of the same molecule?
The TGI was over 100 µM.

And the TGI [45]?
The TGI was over 100 µM.

What about the TGI [46] of the same molecule?
Its TGI is over 100 µM.

And the TGI [47]?
Its TGI is over 100 µM.

What about the TGI [48] of the same molecule?
The TGI was over 100 µM.

What about the TGI [49] of the same molecule?
The TGI was over 100 µM.

And the TGI [50]?
The TGI was over 100 µM.

What about the TGI [51] of the same molecule?
Its TGI is over 100 µM.

What about the TGI [52] of the same molecule?
The TGI was over 100 µM.

And the TGI [53]?
The TGI was over 100 µM.

What about the TGI [54] of the same molecule?
Its TGI is over 100 µM.

What about the TGI [55] of the same molecule?
The TGI was over 100 µM.

Which TGI [1] does the source give for `Clc1ccc(Cc2nc3cc(Cl)ccc3o2)cc1` here?
The TGI was over 100 µM.

What about the TGI [3] of the same molecule?
The TGI was over 100 µM.

And the TGI [4]?
Its TGI is over 100 µM.

What about the TGI [5] of the same molecule?
The TGI was over 100 µM.

What about the TGI [6] of the same molecule?
Its TGI is over 100 µM.

What about the TGI [7] of the same molecule?
Its TGI is 92.3 µM.

And the TGI [8]?
The TGI was 87.4 µM.

And the TGI [9]?
Its TGI is over 100 µM.

What about the TGI [10] of the same molecule?
Its TGI is 80.9 µM.

And the TGI [11]?
Its TGI is 53.2 µM.

What about the TGI [12] of the same molecule?
The TGI was over 100 µM.

What about the TGI [13] of the same molecule?
The TGI was over 100 µM.

What about the TGI [14] of the same molecule?
The TGI was over 100 µM.

What about the TGI [15] of the same molecule?
Its TGI is over 100 µM.

What about the TGI [56] of the same molecule?
The TGI was over 100 µM.

What about the TGI [16] of the same molecule?
The TGI was over 100 µM.

What about the TGI [17] of the same molecule?
The TGI was over 100 µM.

And the TGI [18]?
Its TGI is over 100 µM.

What about the TGI [19] of the same molecule?
Its TGI is over 100 µM.

What about the TGI [20] of the same molecule?
Its TGI is over 100 µM.

And the TGI [21]?
The TGI was over 100 µM.

And the TGI [22]?
Its TGI is over 100 µM.

And the TGI [23]?
The TGI was over 100 µM.

And the TGI [24]?
The TGI was over 100 µM.

And the TGI [25]?
The TGI was over 100 µM.

What about the TGI [26] of the same molecule?
The TGI was 95.6 µM.

What about the TGI [27] of the same molecule?
Its TGI is over 100 µM.

What about the TGI [28] of the same molecule?
The TGI was over 100 µM.

What about the TGI [29] of the same molecule?
The TGI was over 100 µM.

And the TGI [30]?
The TGI was over 100 µM.

And the TGI [31]?
The TGI was over 100 µM.

And the TGI [32]?
Its TGI is 97 µM.

What about the TGI [33] of the same molecule?
Its TGI is over 100 µM.

And the TGI [34]?
Its TGI is 70.9 µM.

What about the TGI [35] of the same molecule?
The TGI was over 100 µM.

What about the TGI [36] of the same molecule?
The TGI was over 100 µM.

And the TGI [37]?
The TGI was over 100 µM.

What about the TGI [38] of the same molecule?
The TGI was over 100 µM.

And the TGI [39]?
Its TGI is over 100 µM.

And the TGI [41]?
Its TGI is over 100 µM.

And the TGI [42]?
Its TGI is 71.8 µM.

And the TGI [43]?
Its TGI is over 100 µM.

And the TGI [44]?
Its TGI is 35.4 µM.

And the TGI [45]?
Its TGI is over 100 µM.

What about the TGI [57] of the same molecule?
Its TGI is 33.1 µM.

What about the TGI [46] of the same molecule?
The TGI was 68.7 µM.

And the TGI [47]?
The TGI was over 100 µM.

And the TGI [48]?
The TGI was over 100 µM.

What about the TGI [58] of the same molecule?
The TGI was over 100 µM.

And the TGI [50]?
The TGI was over 100 µM.

And the TGI [51]?
Its TGI is 97.9 µM.

And the TGI [52]?
The TGI was over 100 µM.

And the TGI [53]?
The TGI was 91.2 µM.

And the TGI [54]?
Its TGI is 92.2 µM.

And the TGI [55]?
The TGI was over 100 µM.

And the TGI [59]?
The TGI was over 100 µM.
